Entries after “also recorded” stand apart in the source; their conditions may differ.
How the values were obtained:
[1] = molecular target: phospholipase A2 (honey bee venom) (Apis mellifera, UniProt P00630); assay type: biochemical; details: 50 µM
Isolated rat adipocytes = assay: localization of lipolytically cleaved and uncleaved GPI-proteins at hcDIGs, IcDIGs and total plasma membranes; assay type: cell-based; details: GPI-2350 50 µM, insulin 10 nM, glimepiride 20 µM
caveolin-1 = assay: dissociation of signaling proteins from caveolin (caveolin-1 immunoprecipitates); assay type: cell-based, rat
Experimental: Solubilized DIGs (see above, 5-20 µg protein) were precleared by incubation with protein A/G-Sepharose and subsequent centrifugation (10,000xg, 5 min). The supernatant was incubated with anti-caveolin-1 antibodies (1:1000) preadsorbed on protein A/G-Sepharose in 1 ml of 10 mM Tris/HCl (pH 7.4), 150 mM NaCl, 1 % TX-100 for 1 h at 4°C. The immune complexes were washed twice with the same buffer and then twice with buffer lacking TX-1 00 and finally subjected to SDS-PAGE performed in the absence of β-mercaptoethanol. The recovery of immunoprecipitated caveolin was normalized by homologous immunoblotting with anti-caveolin antibodies of the same blot following stripping of the membrane.
Polypeptides separated by SDS-PAGE were transferred to polyvinylidene difluoride membranes using the semidry procedure as described in "Müller, G. et al., (2001) Mol. Cell. Biol. 21: 4553-4567". Washed membranes were incubated anti-caveolin-1 (1:2000), anti-pp59^Lyn (1:1250), anti-aP (1:500), anti-5'-Nuc (1:750) and anti-IRS-1 (1:2000) antibodies for 4 h at 15°C. Washed membranes were incubated with horseradish peroxidase-coupled secondary goat anti-mouse (1:2000) or goat anti-rabbit IgG (1:4000) antibodies. Labeled proteins were visualized by enhanced chemiluminescence.
Of signaling proteins from caveolin. […]

cabbage PLD = assay: selectivity: PLD assay; assay type: biochemical; details: 50 µM
Experimental: Hormone-sensitive lipase (HSL) and lipoprotein lipase (LPL) were measured using a radiolabeled triolein droplet emulsion as described in "Vertesy et al., (2002) Journal Antibiotics 55:480-494". Pancreatic lipase (PL) was determined by incubation of 0.25 mmol tributyrin in 2 ml of 5 mM Tris/HCl (pH 6.5), 6 mM sodium taurodeoxycholate, 150 mM NaCl, 1 mM CaCl2 with porcine PL and colipase in the same buffer using a recording pH stat (stirring at 1000 rpm at 25°C) with the pH adjusted to 6.5. PC-PLC was assayed by incubation of 0.2 ml of 10 mM dipalmitoyllecithin, 0.1 ml of 10 mM SDC and 0.1 ml of 0.03 M CaCl2 with bacterial PC-PLC (in 50 mM Tris/HCl, pH 7.5, 0.1 % BSA) for 10 min at 37°C. The reaction was terminated by addition of 0.1 ml of 50 % TCA and subsequently of 2.5 ml of […]. After centrifugation (1500xg, 15 min), 0.2-ml portions of the upper methanol/water phase (~ 1.33 ml) was removed, supplemented with 0.5 ml of 60 % HClO4, then heated at 170°C for 1 h and finally analyzed for inorganic phosphate. Mammalian PI-PLC was measured by incubation of 0.1 ml of 10 mM PI, 0.1 ml of 0.8 % sodium deoxycholate, 0.1 % BSA, 0.2 ml of 100 mM sodium borate (pH 7.5) and rat liver PI-PLC for 20 min at 37°C. The reaction was terminated and further processed as described for the PC-PLC. […] Radioactive phosphatidic acid was detected by phosphorimaging. […]

[2] = relative to amphiphilic version in PM of basal adipocytes (100)
[3] = relative to amphiphilic version in hcDIGs of basal adipocytes (100)

Chain of phospholipase A2 (honey bee venom) (P00630 34-167 limits assumed): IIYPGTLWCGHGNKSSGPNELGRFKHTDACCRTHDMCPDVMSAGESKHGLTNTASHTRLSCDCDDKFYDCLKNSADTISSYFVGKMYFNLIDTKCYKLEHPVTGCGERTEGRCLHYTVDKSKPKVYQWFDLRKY

In the case of `CCCCCCCCCCCCP1(=O)O[C@@H]2[C@H](O)[C@@H](O)[C@H](O)[C@@H](O)[C@@H]2O1` (mixture of isomers) [GPI-2350, myo-inositol-1,2-cyclo-dodecylphosphonic acid], the “effect on phospholipase activity” value [1] is reported as “not significantly affected”, the “5'-Nuc hydroph. PM” value (Isolated rat adipocytes; [2]) is reported as 3±2 arb. units and the “Gce1 hydroph. PM” value (Isolated rat adipocytes; [2]) is reported as 6±3 arb. units. The “aP hydroph. PM” value (Isolated rat adipocytes; [2]) was 4±3 arb. units, the “5'-Nuc amphiph IcDIGs” value (Isolated rat adipocytes; [3]) was 15±6 arb. units and the “5'-Nuc amphiph hcDIGs” value (Isolated rat adipocytes; [3]) was 112±19 arb. units. For the same compound, the “5'-Nuc hydroph. IcDIGs” value (Isolated rat adipocytes; [3]) was 3±1 arb. units, the “5'-Nuc hydroph. hcDIGs” value (Isolated rat adipocytes; [3]) was 7±3 arb. units and the “Gce1 amphiph IcDIGs” value (Isolated rat adipocytes; [3]) was 28±6 arb. units. The “Gce1 amphiph hcDIGs” value (Isolated rat adipocytes; [3]) was 109±10 arb. units, the “Gce1 hydroph. IcDIGs” value (Isolated rat adipocytes; [3]) was 14±7 arb. units and the “Gce1 hydroph. hcDIGs” value (Isolated rat adipocytes; [3]) was 21±7 arb. units. The “aP amphiph IcDIGs” value (Isolated rat adipocytes; [3]) was 19±13 arb. units, the “aP amphiph hcDIGs” value (Isolated rat adipocytes; [3]) was 117±11 arb. units and the “effect on induced dissociation of pp59^Lyn and Gce1 from caveolin” value (caveolin-1; 50 µM, Fig. 6 Panel A) was “almost complete blockade; also recorded: completely abrogated”. The IC50 (caveolin-1; abrogation of insulin- and glimepiride-induced losses, Fig. 6 Panel B) was 5 to 10 µM and the “effect on phospholipase activity” value (cabbage PLD) was “not significantly affected”.

Source: patent EP1566447A1, “Glimepiride- and insulin-induced glycosylphosphatidylinositol-specific phospholipase C regulation” (priority 2004, dated 2005)
